Measurements published in patent EP0858509B1, “DNA SEQUENCES ENCODING CMH-1, A CYSTEINE PROTEASE INVOLVED IN APOPTOSIS” (VERTEX PHARMACEUTICALS INCORPORATED, priority 1995, dated 1997).

Molecular target: T1, CMH-1 (Homo sapiens, UniProt P55210)
T1 construct: we expressed an N-terminal (His)6-tagged CMH-1(Ala24-Gln303) in E. coli; made in house; host or cells: E. coli BL21(DE3), pET-15b
T1 sequence (P55210 24-303): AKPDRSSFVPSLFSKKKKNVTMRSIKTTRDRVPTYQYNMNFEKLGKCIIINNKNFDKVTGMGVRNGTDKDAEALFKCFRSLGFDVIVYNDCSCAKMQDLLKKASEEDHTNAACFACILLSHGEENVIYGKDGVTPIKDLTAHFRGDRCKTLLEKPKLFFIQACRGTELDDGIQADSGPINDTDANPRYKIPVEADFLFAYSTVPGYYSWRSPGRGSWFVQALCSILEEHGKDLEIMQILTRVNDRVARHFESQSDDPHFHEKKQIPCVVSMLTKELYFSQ
T1 sequence (P55210 199-303): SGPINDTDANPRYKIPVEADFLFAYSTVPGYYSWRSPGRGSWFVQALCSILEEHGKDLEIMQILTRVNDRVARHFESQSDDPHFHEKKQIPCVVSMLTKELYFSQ
Assay: Inhibition of in vitro cleavage of 35S-labelled PARP by CMH-1 (SDS-PAGE and fluorography)
Assay type: biochemical
Details: 35S-labelled PARP as substrate, Fig. 4, panel B
Experimental: In order to determine the activity of purified CMH-1, we determined whether the protein could cleave ^35[S]-labeled pro-IL-1b and PARP and compared its cleavage activity to purified ICE. We prepared ^35[S]-labeled PARP and IL-1b precursor (pro-IL-1b) by in vitro transcription and translation. Cleavage experiments were carried out as described previously [Y. Gu et al., J. Biol. Chem. (1995)]. Cleavage products were analyzed by SDS-PAGE and fluorography as described in that reference.

Compound	inhibition of the cleavage activity of CMH-1
NC(=O)CI [iodoacetamide]	inhibited
CCN1C(=O)C=CC1=O [N-ethylmaleimide]	inhibited
YVAD-CHO	not
